# Assay results taken from US20230303564A1, “PYRIMIDINE RING COMPOUND” (MEDSHINE DISCOVERY INC., priority 2020, published 2023).
# Assays:
# Format in all cases: biochemical
# CDK7/CyclinH/MAT1 = CDK7/CyclinH/MAT1 (Homo sapiens (Human), UniProt P50613); assay: CDK7/CyclinH/MAT1 enzyme activity test (ADP-Glo); settings: 10 μM ATP, 25° C. 120 minutes, read-out: CDK7/Cyclin H IC50
# Experimental: CDK7/CyclinH/MAT1 Enzyme Reaction System
# Enzymes, substrates (MBP), ATP, and inhibitors were diluted by kinase buffer in the kit. The compounds to be tested were diluted 5-fold with a multi-channel pipette to the eighth concentration, that is, from 50 μM to 0.65 nM, the concentration of DMSO was 5%, and a double-hole experiment was set up. 1 μL of each concentration gradient of inhibitors, 2 μL of CDK7/CyclinH/MAT1 enzyme (20 ng), 2 μL mixture of substrate and ATP (10 μM ATP, 0.1 μg/μL substrate) were added to the microplates, and the final concentration gradient of the compound was 10 μM to 0.13 nM. The reaction system was reacted at 25° C. for 120 minutes. After the reaction, 5 μL of ADP-Glo reagent was added to each well, the reaction was carried out at 25° C. for 40 minutes, after the reaction was completed, 10 μL of kinase detection reagent was added to each well, the reaction was carried out at 25° C. for 30 minutes, the multiple label analyzer was used to read the chemiluminescence with an integration time of 0.5 seconds.
# CDK2/CyclinA2 = CDK2/CyclinA2 (Homo sapiens (Human), UniProt P24941); assay: CDK2/CyclinA2 enzyme activity test (ADP-Glo); settings: 50 μM ATP, 25° C. 60 minutes, read-out: CDK2/Cyclin A2 IC50
# Experimental: CDK2/CyclinA2 Enzyme Reaction System
# (§1) Enzymes, substrates, ATP, and inhibitors were diluted by kinase buffer in the kit. The compounds to be tested were diluted 5-fold with a multi-channel pipette to the eighth concentration, that is, from 50 μM to 0.65 nM, the concentration of DMSO was 5%, and a double-hole experiment was set up. 1 μL of each concentration gradient of inhibitors, 2 μL of CDK2/CyclinA2 enzyme (1.6 ng), 2 μL mixture of substrate and ATP (50 μM ATP, 0.1 μg/μL substrate) were added to the microplates, and the final concentration gradient of the compound was 10 μM to 0.13 nM. The reaction system was reacted at 25° C. for 60 minutes. After the reaction, 5 μL of ADP-Glo reagent was added to each well, the reaction was carried out at 25° C. for 40 minutes, after the reaction was completed, 10 μL of kinase detection reagent was added to each well, the reaction was carried out at 25° C. for 30 minutes, the multiple label analyzer was used to read the chemiluminescence with an integration time of 0.5 seconds
# (§2) The equation (Sample−Min)/(Max−Min)*100% was used to convert the raw data into inhibition rate, and the value of IC50 can be obtained by curve fitting with four parameters (obtained by log (inhibitor) vs. response-Variable slope mode in GraphPad Prism). The enzymatic inhibitory activity of the compounds of the present disclosure on CDK1/CyclinB1, CDK2/CyclinA2, CDK2/CyclinE1, CDK4/CyclinD1, CDK6/CyclinD1, CDK7/CyclinH/MAT1, CDK9/CyclinT1 was provided in Table 1.
# CDK2/CyclinE1 = CDK2/CyclinE1 (Homo sapiens (Human), UniProt P24941); assay: CDK2/CyclinE1 enzyme activity test (ADP-Glo); settings: 150 μM ATP, 25° C. 60 minutes, read-out: CDK2/Cyclin E1 IC50
# Experimental: CDK2/CyclinE1 Enzyme Reaction System
# as §1, with “CDK2/CyclinE1” for “CDK2/CyclinA2”, “(2” for “(1.6”, “(150” for “(50”, “seconds.” for “seconds”
# as §2
# CDK6/CyclinD1 = CDK6/CyclinD1 (Homo sapiens (Human), UniProt Q00534); assay: CDK6/CyclinD1 enzyme activity test (LANCE Ultra TR-FRET); settings: 250 μM ATP, 25° C. 120 minutes, read-out: CDK6/Cyclin D1 IC50
# Experimental: CDK6/CyclinD1 Enzyme Reaction System
# (§3) Preparation of Kinase Buffer:
# (§4) The composition of the buffer: 50 mM of hydroxyethylpiperazine ethanesulfonic acid solution at pH 7.5, 1 mM of ethylenediaminetetraacetic acid, 10 mM of magnesium chloride, 0.01% Brij-35, and 2 mM of dithiothreitol.
# (§5) Enzymes, substrate LANCE Ultra ULight™-4E-BP-1(Thr37146) Peptide, ATP, and inhibitors were diluted by kinase buffer.
# (§6) The compounds to be tested were diluted 5-fold with a multi-channel pipette to the eighth concentration, that is, from 40 μM to 0.512 nM, the concentration of DMSO was 4%, and a double-hole experiment was set up. […] The reaction system was reacted at 25° C. for 120 minutes. After the reaction, 5 μL mixture of EDTA and 2× LANCE™ Detection Buffer (1:1) were added to each well, the reaction was carried out at 25° C. for 5 minutes, after the reaction was completed, 5 μL of LANCE Ultra Eu-anti-P-4E-BP1(Thr37MS) (4 nM) was added to each well, the reaction was carried out at 25° C. for 60 minutes, the reaction signal was detected by Nivo instrument according to the principle of time-resolved fluorescence resonance energy transfer.
# as §2
# CDK9/CyclinT1 = CDK9/CyclinT1 (Homo sapiens (Human), UniProt P50750); assay: CDK9/CyclinT1 enzyme activity test (ADP-Glo); settings: 100 μM ATP, 25° C. 120 minutes, read-out: CDK 9/Cyclin T1 IC50
# Experimental: CDK9/CyclinT1 Enzyme Reaction System
# as §1, with “of CDK9/CyclinT1” for “of CDK2/CyclinA2”, “enzyme (4” for “enzyme (1.6”, “ATP (100” for “ATP (50”, “ATP, 0.2” for “ATP, 0.1”, “for 120” for “for 60”, “0.5 seconds.” for “0.5 seconds”
# as §2
# CDK1/CyclinB1 = CDK1/CyclinB1 (Homo sapiens (Human), UniProt P06493); assay: CDK1/CyclinB1 enzyme activity test (ADP-Glo); settings: 25 μM ATP, 25° C. 120 minutes, read-out: CDK1/Cyclin B IC50
# Experimental: CDK1/CyclinB1 Enzyme Reaction System
# as §1, with “CDK1/CyclinB1” for “CDK2/CyclinA2”, “(12.5” for “(1.6”, “(25” for “(50”, “adenosine triphosphate, 0.2” for “ATP, 0.1”, “120” for “60”, “seconds.” for “seconds”
# as §2
# CDK4/CyclinD1 = CDK4/CyclinD1 (Homo sapiens (Human), UniProt P11802); assay: CDK4/CyclinD1 enzyme activity test (LANCE Ultra TR-FRET); settings: 350 μM ATP, 25° C. 120 minutes, read-out: CDK4/Cyclin D1 IC50
# Experimental: CDK4/CyclinD1 Enzyme Reaction System
# as §3, §4, §5, §6, §2
# CDK1/CyclinB1, sequence (P06493 whole entry): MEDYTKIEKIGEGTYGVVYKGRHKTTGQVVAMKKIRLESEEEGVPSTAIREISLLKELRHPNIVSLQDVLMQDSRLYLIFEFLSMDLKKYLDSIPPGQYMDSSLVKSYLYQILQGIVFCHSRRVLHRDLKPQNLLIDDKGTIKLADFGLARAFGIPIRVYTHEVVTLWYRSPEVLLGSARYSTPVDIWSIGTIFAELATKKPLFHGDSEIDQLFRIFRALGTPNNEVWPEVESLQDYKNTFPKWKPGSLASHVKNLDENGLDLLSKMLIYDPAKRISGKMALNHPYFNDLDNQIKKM
# CDK1/CyclinB1, sequence (P14635 whole entry partner): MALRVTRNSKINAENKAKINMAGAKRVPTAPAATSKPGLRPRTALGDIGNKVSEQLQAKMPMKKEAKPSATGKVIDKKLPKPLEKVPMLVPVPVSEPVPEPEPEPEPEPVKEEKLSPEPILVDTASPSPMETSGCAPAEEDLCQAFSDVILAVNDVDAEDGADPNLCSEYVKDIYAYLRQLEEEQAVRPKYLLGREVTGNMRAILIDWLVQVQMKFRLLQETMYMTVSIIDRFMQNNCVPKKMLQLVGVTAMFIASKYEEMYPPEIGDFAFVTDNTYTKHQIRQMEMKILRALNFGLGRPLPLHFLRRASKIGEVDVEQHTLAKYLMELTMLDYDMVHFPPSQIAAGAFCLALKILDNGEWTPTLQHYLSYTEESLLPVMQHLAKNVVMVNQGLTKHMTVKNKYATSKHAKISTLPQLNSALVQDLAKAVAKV
# CDK6/CyclinD1, sequence (Q00534 whole entry): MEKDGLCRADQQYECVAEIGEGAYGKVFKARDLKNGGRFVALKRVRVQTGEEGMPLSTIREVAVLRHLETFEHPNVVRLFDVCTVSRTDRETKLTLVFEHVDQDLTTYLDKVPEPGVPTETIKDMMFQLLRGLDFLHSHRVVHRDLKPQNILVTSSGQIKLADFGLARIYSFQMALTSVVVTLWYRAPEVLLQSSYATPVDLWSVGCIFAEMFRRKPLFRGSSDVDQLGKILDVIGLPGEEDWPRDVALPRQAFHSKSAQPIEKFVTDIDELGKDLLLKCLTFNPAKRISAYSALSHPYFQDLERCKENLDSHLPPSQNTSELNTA
# CDK6/CyclinD1, sequence (P24385 whole entry partner): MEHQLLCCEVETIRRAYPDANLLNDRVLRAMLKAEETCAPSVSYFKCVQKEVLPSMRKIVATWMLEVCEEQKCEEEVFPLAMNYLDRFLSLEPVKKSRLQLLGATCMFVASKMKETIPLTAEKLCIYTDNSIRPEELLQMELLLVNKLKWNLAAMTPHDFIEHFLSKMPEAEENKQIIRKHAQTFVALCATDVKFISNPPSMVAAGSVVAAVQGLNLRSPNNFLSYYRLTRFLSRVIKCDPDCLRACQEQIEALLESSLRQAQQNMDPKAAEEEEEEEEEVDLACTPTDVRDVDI
# CDK4/CyclinD1, sequence (P11802 whole entry): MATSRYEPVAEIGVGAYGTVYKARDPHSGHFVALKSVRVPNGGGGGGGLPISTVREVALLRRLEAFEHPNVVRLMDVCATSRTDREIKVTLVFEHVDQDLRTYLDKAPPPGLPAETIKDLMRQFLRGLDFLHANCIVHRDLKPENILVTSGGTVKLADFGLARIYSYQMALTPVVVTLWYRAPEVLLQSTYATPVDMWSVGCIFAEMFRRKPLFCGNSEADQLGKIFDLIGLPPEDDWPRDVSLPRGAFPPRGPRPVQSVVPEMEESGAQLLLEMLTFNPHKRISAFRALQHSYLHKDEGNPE
# CDK4/CyclinD1, sequence (P24385 whole entry partner): as the sequence (P24385 whole entry partner) above
# CDK7/CyclinH/MAT1, sequence (P50613 whole entry): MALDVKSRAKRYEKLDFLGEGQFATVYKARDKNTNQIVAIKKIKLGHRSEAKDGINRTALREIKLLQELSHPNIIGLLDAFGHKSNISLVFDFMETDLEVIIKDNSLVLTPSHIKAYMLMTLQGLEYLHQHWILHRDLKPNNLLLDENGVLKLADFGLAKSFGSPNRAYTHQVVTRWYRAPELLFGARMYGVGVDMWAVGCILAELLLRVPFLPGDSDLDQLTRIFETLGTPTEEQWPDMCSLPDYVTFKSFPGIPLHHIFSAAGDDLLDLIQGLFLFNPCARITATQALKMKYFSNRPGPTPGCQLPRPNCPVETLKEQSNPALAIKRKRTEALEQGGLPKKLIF
# CDK7/CyclinH/MAT1, sequence (P51946 whole entry partner): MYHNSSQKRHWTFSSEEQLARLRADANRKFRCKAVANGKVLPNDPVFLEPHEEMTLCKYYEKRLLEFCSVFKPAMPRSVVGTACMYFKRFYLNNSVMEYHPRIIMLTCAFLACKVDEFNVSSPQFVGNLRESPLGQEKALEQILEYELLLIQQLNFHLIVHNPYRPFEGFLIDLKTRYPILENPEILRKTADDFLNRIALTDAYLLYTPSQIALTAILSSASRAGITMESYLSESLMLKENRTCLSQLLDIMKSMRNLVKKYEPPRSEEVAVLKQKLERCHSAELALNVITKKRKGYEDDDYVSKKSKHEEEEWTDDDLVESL
# CDK7/CyclinH/MAT1, sequence (P51948 whole entry partner): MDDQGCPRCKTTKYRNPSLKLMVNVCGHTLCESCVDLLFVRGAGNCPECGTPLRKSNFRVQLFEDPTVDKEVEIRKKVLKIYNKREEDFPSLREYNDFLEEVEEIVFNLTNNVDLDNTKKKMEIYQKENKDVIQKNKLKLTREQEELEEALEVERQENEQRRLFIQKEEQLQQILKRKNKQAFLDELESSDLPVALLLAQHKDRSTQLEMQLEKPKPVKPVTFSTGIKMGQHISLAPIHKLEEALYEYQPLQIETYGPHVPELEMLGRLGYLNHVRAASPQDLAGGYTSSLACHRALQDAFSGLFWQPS
# CDK9/CyclinT1, sequence (P50750 whole entry): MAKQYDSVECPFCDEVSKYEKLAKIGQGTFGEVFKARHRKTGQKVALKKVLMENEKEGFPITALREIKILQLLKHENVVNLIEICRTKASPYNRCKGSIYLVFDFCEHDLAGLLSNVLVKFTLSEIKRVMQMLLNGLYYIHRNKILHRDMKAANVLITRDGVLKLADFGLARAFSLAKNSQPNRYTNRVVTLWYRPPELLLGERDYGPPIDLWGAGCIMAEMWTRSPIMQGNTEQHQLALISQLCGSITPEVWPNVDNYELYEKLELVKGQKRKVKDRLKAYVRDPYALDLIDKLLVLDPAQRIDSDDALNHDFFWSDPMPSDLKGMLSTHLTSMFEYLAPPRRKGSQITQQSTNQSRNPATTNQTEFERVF
# CDK9/CyclinT1, sequence (O60563 whole entry partner): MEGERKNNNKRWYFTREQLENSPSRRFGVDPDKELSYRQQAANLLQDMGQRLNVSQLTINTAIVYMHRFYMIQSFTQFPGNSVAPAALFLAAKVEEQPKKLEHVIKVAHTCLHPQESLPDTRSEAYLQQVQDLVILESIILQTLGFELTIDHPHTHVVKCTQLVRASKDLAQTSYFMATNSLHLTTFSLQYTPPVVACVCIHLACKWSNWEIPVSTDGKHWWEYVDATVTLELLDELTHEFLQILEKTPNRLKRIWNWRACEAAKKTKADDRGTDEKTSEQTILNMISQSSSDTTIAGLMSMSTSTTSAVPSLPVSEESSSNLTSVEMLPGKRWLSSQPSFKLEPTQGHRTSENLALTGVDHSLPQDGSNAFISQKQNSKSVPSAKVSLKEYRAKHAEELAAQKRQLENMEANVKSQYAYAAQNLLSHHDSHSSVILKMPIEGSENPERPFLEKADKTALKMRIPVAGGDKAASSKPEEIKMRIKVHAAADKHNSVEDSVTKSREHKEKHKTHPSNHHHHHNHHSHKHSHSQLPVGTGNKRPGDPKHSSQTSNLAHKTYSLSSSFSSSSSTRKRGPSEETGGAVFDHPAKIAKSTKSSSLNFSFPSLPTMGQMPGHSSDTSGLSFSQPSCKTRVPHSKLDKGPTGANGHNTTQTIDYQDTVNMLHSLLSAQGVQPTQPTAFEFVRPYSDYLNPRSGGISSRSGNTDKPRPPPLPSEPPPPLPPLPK
compound,measurement,setting,value
Cc1cc2cnc(NC3CCN(S(C)(=O)=O)CC3)nc2c(N[C@@H]2CCC[C@@]2(C)O)n1 [Compound 8],IC50,CDK7/CyclinH/MAT1,41 nM
same,IC50,CDK2/CyclinA2,0.73 nM
same,IC50,CDK2/CyclinE1,3.92 nM
same,IC50,CDK6/CyclinD1,0.81 nM
same,IC50,CDK9/CyclinT1,89 nM
same,IC50,CDK1/CyclinB1,6.77 nM
same,IC50,CDK4/CyclinD1,1.23 nM
